Patent US20240099996A1, “METHODS FOR TREATING CANCER” (Radius Pharmaceuticals, Inc., priority 2015, published 2024)
Where a name gives a salt, the structure may show the parent alone.

Columns and labels:
[1] = RAD1901 levels in plasma, tumor and brain of MCF-7 xenograft mice by LC-MS/MS; format: in vivo; settings: 40 days
Text: A similar tumor to plasma ratio was also observed at lower dose levels where tumor concentrations were approximately 20-30 fold higher than in plasma.

MCF-7 xenograft [2] = assay: MCF-7 Xenograft Model-I, tumor growth inhibition; format: in vivo; settings: for % TGI / partial regressions (PR): day 42
Method: Three days prior to tumor cell implantation, estrogen pellets (0.36 mg E2, 60-day release; Innovative Research of America, Sarasota, FL) were implanted subcutaneously between the scapulae of all test animals using a sterilized trochar. MCF-7 human breast adenocarcinoma cells were cultured to mid-log phase in RPMI-1640 medium containing 10% fetal bovine serum, 100 units/mL penicillin G, 100 μg/mL streptomycin sulfate, 2 mM glutamine, 10 mM HEPES, 0.075% sodium bicarbonate, and 25 μg/mL gentamicin. On the day of tumor cell implant, the MCF-7 cells were trypsinized, pelleted, and resuspended in phosphate buffered saline at a concentration of 5×10^7 cells/mL. Each test mouse received 1×10^7 MCF-7 cells implanted subcutaneously in the right flank, and tumor growth was monitored. When necessary, tumor weight was estimated based on the assumption that 1 mm^3 of tumor volume was equivalent to 1 mg tumor wet weight. Body weights were measured q.d. for five days after the MCF-7 cell implantation, then twice per week throughout the remainder of the study.
Fourteen days after tumor cell implantation (designated as day 1 of the study), mice were nine weeks of age with body weights ranging from 21.4 to 32.5 grams, individual tumor volumes ranging from 75 to 144 mm^3, and group mean tumor volume (MTV) of 108 mm^3.
Tumor volumes were evaluated twice per week. The tumor endpoint was defined as a MTV of 1,500 mm^3 in the control group. Treatment tolerability was assessed through body weight measurements and frequent observation for clinical signs of treatment-related adverse effects. Animals with weight loss exceeding 30% for one measurement, or exceeding 25% for three measurements, were humanely euthanized and classified as a treatment-related death. Acceptable toxicity was defined as a group-mean body weight loss of less than 20% during the study and not more than one treatment-related death per ten treated animals, or 10%. At the end of the study animals were euthanized by terminal cardiac puncture under isoflurane anesthesia.
Treatment outcome was evaluated based on percent tumor growth inhibition (TGI), defined as the percent difference between baseline (i.e., day 1) tumor volume and tumor volume at the end of the study (i.e., day 42). The data set for TGI analysis included all animals in each group, less any that died due to treatment-related or non-treatment-related causes. The threshold for potential therapeutic activity was defined as a treatment effect of ≥60% TGI. Results were analyzed using the Kruskal-Wallis or Mann-Whitney test, with a pre-specified alpha of 0.05.

MCF-7 xenograft [3] = assay: Ki67 staining of MCF-7 xenograft tumors; format: in vivo, mice; settings: RAD1901 90 mg/kg; 8 hours after single dose and 24 hours after 4th dose
MCF-7 intracranial tumor = MCF-7 intracranial tumor xenograft model, survival; format: in vivo, mice; settings: RAD1901 120 mg/kg q.d.
Method: Female athymic nude mice (Crl:NU(NCr)-Foxn1nu) were used for tumor xenograft studies. Three days prior to tumor cell implantation, estrogen pellets (0.36 mg E2, 60-day release, Innovative Research of America, Sarasota, FL) were implanted subcutaneously between the scapulae of all test animals using a sterilized trochar. MCF-7 human breast adenocarcinoma cells were cultured to mid-log phase in RPMI-1640 medium containing 10% fetal bovine serum, 100 units/mL penicillin G, 100 μg/mL streptomycin sulfate, 2 mM glutamine, 10 mM HEPES, 0.075% sodium bicarbonate and 25 µg/mL gentamicin. On the day of tumor cell implant, the cells were trypsinized, pelleted, and resuspended in phosphate buffered saline at a concentration of 5x 10^7 cells/mL. Each test mouse received 1×10^6 MCF-7 cells implanted intracranially.
The endpoint was defined as a mortality or 3X survival of the control group, whichever comes first. Treatment tolerability was assessed by body weight measurements and frequent observation for clinical signs of treatment-related adverse effects. Animals with weight loss exceeding 30% for one measurement, or exceeding 25% for three measurements, were humanely euthanized and classified as a treatment-related death. […]

CCNCCc1ccc(CN(CC)c2cc(OC)ccc2[C@@H]2CCc3cc(O)ccc3C2)cc1 [RAD1901, (6R)-6-(2-(N-(4-(2-(ethylamino)ethyl)benzyl)-N-ethylamino)-4-methoxyphenyl)-5,6,7,8-tetrahydronaphthalen-2-ol dihydrochloride]
Brain (ng/mL) ([1]; 0.3 mg/kg): BLQ
Brain (ng/mL) ([1]; 1 mg/kg): BLQ
% TGI (MCF-7 xenograft [2]; RAD1901 60 mg/kg p.o., q.d.): 94%
partial regressions (PR) (MCF-7 xenograft [2]; RAD1901 60 mg/kg): 2/10
% TGI (MCF-7 xenograft [2]; RAD1901 90 mg/kg p.o., q.d.): 97%
partial regressions (PR) (MCF-7 xenograft [2]; RAD1901 90 mg/kg): 8/10
% TGI (MCF-7 xenograft [2]; RAD1901 120 mg/kg p.o., q.d.): 96%
partial regressions (PR) (MCF-7 xenograft [2]; RAD1901 120 mg/kg): 7/10
tolerability, bodyweight (MCF-7 xenograft [2]; RAD1901 0.3-120 mg/kg p.o., q.d.): well tolerated at all dosage levels, with no adverse effect on bodyweight
proliferation marker Ki67 (MCF-7 xenograft [3]): rapid decrease of the proliferation marker Ki67
animals surviving until end of study on day 54 (MCF-7 intracranial tumor): 41%
